Measured values reported in ChEMBL document CHEMBL5465560, “Selectivity Literature for EUbOPEN Chemogenomic Library” (2024).

How the values were obtained:
[1] = molecular target: Cyclin-dependent kinase 15 (Homo sapiens) (UniProt Q96Q40); assay: Selectivity interaction (KinomeScan (DiscoverX)) EUB0000229b CDK15; settings: at 10 µM
[2] = molecular target: Mitogen-activated protein kinase 9 (Homo sapiens, UniProt P45984); assay: Selectivity interaction (LanthaScreen Eu Kinase Binding Assay) EUB0001632a MAPK9; settings: at 10 µM
Mitogen-activated protein kinase 9, sequence (P45984 whole entry, looked up): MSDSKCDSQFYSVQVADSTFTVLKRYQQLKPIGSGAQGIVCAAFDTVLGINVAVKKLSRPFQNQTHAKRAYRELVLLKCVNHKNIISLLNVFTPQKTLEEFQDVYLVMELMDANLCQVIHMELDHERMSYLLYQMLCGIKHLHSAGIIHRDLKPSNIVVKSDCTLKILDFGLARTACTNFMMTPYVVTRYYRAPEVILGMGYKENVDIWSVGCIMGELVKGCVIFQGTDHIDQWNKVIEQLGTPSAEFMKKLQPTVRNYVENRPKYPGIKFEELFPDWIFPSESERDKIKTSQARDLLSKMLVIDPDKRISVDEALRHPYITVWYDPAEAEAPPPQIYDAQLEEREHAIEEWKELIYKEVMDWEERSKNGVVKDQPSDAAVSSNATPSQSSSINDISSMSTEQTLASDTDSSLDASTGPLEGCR

[3] = molecular target: T1, Inhibitor of nuclear factor kappa-B kinase subunit alpha (Homo sapiens) (UniProt O15111); settings: at 1 µM
T1 sequence (whole entry): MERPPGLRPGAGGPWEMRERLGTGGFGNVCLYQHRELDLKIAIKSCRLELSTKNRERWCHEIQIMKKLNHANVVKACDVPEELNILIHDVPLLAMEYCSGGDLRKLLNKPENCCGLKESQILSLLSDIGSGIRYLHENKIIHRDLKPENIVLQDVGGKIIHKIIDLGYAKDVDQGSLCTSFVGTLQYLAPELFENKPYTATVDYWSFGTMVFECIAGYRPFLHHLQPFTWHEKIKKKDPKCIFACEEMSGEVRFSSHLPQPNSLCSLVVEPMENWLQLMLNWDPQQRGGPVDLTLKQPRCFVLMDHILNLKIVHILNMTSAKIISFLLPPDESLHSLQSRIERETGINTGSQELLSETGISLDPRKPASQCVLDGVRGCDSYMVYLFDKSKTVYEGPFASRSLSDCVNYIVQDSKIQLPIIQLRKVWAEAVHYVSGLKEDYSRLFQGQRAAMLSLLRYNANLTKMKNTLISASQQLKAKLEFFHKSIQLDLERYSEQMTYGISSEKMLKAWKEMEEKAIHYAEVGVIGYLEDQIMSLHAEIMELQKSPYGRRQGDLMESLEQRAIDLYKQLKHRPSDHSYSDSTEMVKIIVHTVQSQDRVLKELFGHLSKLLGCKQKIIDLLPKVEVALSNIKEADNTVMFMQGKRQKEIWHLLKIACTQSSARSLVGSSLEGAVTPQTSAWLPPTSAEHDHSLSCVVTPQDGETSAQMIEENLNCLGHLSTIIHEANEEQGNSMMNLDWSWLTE

[4] = molecular target: T2, Ephrin type-B receptor 3 (Homo sapiens) (UniProt P54753); assay: Selectivity interaction (KinomeScan (DiscoverX)) EUB0000607a EPHB3; settings: at 10 µM
T2 sequence (whole entry): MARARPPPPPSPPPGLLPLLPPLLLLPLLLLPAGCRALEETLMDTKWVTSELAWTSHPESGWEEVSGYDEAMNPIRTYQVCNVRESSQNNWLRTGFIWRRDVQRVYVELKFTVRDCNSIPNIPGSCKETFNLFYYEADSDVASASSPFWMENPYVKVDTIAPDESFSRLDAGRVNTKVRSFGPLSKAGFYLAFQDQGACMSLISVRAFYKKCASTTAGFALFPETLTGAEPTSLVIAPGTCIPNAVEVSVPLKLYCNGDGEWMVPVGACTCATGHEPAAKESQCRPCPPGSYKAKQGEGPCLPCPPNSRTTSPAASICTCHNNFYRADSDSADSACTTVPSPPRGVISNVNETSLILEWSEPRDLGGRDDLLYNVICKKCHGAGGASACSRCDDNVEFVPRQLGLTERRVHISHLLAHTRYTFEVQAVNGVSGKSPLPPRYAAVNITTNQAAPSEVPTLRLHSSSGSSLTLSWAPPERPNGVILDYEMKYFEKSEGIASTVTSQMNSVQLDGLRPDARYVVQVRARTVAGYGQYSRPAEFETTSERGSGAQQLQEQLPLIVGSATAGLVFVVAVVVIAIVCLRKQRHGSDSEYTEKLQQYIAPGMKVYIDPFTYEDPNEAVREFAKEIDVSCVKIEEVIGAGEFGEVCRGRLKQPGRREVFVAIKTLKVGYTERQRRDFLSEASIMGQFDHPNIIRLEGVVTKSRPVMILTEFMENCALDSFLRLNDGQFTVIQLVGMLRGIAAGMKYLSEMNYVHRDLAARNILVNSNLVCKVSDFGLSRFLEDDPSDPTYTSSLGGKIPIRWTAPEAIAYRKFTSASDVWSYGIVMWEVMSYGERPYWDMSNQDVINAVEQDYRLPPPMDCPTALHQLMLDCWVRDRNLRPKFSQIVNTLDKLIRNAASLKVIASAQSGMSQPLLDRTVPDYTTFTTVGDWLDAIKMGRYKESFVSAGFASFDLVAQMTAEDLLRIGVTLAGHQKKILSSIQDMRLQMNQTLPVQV

[5] = molecular target: T1, Inhibitor of nuclear factor kappa-B kinase subunit alpha (Homo sapiens); assay: Selectivity interaction (ActivX KiNativ screen (kinase selectivity in THP-1 cell lysates)) EUB0000639a CHUK; assay type: subcellular; settings: lysate
[6] = molecular target: Interferon-induced, double-stranded RNA-activated protein kinase (Homo sapiens) (UniProt P19525); assay: Selectivity interaction (ActivX KiNativ screen (kinase selectivity in THP-1 cell lysates)) EUB0000639a EIF2AK2; assay type: subcellular; settings: lysate, at 0.2 µM
Interferon-induced, double-stranded RNA-activated protein kinase (Homo sapiens), sequence (P19525 whole entry): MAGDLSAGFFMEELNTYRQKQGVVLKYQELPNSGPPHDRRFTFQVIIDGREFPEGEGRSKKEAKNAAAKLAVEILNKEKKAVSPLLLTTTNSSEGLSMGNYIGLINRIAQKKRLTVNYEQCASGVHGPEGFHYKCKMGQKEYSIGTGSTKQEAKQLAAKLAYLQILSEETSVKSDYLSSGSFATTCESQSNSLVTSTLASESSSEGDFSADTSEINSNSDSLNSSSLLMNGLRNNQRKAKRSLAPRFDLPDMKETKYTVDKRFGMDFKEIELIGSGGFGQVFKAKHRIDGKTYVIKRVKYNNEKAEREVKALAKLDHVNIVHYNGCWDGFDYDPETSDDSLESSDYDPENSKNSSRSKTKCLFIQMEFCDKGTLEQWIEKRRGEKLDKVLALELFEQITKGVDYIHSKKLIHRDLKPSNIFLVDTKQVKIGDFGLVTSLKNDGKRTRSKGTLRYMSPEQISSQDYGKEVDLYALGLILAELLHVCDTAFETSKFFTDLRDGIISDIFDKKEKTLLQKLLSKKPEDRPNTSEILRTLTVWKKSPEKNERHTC

[7] = molecular target: Serine/threonine-protein kinase SMG1 (Homo sapiens) (UniProt Q96Q15); assay: Selectivity interaction (ActivX KiNativ screen (kinase selectivity in THP-1 cell lysates)) EUB0000639a SMG1; assay type: subcellular; settings: lysate, at 0.01 µM
Serine/threonine-protein kinase SMG1 (Homo sapiens), sequence (Q96Q15 whole entry): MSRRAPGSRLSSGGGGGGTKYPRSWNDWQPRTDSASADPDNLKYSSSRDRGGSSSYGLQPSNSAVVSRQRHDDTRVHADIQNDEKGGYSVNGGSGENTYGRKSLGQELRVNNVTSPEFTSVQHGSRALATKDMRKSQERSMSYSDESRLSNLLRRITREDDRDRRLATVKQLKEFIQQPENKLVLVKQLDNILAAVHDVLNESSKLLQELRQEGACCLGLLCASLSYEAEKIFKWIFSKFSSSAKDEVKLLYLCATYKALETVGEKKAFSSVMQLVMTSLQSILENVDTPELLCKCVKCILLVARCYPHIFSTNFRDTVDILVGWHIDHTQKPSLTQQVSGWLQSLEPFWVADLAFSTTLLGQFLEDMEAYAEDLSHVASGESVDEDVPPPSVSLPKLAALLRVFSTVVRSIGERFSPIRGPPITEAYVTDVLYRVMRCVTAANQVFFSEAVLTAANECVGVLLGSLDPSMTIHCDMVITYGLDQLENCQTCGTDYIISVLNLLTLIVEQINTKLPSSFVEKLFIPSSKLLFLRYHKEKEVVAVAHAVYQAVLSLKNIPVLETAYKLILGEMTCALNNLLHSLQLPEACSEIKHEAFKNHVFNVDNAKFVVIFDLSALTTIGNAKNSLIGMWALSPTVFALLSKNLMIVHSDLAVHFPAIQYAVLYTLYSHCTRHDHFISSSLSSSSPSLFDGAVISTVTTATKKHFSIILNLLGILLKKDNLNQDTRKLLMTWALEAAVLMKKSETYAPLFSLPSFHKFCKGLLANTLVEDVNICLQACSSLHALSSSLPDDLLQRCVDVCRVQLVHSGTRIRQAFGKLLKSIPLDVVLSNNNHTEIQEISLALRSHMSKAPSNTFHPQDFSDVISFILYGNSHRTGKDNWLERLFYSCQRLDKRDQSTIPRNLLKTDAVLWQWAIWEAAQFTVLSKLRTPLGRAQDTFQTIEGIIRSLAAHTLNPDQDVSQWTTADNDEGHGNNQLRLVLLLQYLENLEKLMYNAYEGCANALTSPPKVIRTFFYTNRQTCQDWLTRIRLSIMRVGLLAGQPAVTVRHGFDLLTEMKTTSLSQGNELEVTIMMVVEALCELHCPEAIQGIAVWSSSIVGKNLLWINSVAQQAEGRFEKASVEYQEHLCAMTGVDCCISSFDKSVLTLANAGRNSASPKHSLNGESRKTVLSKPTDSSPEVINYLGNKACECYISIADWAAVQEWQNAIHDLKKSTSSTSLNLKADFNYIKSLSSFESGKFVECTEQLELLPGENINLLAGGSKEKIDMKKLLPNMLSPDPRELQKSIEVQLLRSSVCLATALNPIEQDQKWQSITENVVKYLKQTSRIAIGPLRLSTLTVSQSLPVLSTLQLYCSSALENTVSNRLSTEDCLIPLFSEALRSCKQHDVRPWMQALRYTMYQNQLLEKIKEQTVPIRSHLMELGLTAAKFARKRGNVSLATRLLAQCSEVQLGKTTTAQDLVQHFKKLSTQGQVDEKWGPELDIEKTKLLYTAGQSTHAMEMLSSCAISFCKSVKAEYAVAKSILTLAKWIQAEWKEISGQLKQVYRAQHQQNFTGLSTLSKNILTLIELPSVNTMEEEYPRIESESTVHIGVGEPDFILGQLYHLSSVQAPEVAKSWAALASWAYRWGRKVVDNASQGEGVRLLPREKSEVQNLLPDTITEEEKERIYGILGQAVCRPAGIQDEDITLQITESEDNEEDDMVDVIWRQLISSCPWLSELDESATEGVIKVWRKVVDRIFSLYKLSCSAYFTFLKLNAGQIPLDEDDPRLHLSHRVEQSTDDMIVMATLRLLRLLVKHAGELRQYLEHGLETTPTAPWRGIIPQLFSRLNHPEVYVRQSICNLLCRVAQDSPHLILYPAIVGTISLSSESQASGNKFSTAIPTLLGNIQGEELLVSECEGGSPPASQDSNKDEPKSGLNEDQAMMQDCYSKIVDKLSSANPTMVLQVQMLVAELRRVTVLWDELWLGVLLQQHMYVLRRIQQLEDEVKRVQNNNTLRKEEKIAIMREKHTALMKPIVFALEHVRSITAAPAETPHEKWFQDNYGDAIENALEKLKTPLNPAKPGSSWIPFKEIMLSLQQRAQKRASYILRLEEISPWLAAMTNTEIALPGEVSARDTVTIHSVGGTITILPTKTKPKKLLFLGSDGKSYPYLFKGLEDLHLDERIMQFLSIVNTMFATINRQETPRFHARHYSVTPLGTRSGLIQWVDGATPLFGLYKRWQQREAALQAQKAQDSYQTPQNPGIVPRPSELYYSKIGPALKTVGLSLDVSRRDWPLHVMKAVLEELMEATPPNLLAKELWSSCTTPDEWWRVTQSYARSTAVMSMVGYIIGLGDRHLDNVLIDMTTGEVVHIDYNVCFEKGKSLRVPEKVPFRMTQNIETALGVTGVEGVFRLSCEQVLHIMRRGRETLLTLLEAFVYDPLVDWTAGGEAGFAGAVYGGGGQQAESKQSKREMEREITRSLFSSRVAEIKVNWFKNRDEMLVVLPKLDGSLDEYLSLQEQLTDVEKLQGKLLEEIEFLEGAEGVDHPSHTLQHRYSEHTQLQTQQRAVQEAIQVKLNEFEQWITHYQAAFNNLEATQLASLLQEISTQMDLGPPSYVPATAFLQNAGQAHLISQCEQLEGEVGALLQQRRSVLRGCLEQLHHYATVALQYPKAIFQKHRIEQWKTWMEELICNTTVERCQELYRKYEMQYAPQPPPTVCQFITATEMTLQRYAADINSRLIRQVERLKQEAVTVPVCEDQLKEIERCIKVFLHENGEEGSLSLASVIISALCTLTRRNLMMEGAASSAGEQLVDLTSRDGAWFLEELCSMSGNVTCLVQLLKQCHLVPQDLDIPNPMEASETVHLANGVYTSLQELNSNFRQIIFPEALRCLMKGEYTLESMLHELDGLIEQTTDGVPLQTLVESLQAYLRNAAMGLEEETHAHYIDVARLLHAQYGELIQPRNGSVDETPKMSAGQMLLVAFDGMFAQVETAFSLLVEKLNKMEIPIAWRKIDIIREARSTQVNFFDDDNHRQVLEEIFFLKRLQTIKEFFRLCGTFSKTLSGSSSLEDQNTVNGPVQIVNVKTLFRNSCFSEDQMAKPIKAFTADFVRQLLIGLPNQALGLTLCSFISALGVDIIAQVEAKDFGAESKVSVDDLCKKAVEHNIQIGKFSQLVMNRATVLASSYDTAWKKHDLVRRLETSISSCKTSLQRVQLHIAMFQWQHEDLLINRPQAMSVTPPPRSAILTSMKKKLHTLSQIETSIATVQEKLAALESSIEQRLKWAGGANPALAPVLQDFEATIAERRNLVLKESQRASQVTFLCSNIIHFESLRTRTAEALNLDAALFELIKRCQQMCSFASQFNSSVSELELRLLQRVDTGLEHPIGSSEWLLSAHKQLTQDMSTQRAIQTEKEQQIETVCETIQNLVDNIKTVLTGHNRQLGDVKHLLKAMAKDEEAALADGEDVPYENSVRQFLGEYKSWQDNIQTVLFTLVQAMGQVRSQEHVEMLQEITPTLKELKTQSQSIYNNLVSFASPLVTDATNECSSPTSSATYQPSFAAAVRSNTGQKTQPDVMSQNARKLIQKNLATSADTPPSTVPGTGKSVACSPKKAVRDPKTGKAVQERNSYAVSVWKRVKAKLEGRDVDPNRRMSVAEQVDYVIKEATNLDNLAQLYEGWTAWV

Cyclin-dependent kinase 15 (Homo sapiens), sequence (Q96Q40 whole entry): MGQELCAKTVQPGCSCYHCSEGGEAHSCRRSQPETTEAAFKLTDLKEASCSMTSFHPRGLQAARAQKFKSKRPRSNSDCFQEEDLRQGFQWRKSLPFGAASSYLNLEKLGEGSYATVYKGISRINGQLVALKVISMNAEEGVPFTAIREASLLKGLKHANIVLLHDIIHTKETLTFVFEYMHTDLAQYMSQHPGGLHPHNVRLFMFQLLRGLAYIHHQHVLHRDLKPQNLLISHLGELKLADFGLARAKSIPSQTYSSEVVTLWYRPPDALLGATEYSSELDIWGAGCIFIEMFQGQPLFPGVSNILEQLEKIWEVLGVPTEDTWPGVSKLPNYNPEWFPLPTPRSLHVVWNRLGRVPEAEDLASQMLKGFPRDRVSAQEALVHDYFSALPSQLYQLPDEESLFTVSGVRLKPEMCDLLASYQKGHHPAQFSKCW

How did the % binding [1] turn out when COc1cc(N(C)c2ccnc3ccc(C(F)(F)F)cc23)cc(OC)c1OC was run?
The % binding was 85%.

Cn1cc(-n2cnc3c(NCc4nc5cc(Cl)c(Cl)cc5[nH]4)nc(N4CCOCC4)nc32)cn1 was tested. Which % of inhibition [2] did it give?
The % of inhibition was -21.2%.

Which % of inhibition [3] does the source give for Cc1ccc(-c2ccc3c(ccc4sc5c(c43)NC[C@@H](C)NC5=O)n2)cn1 here?
Its % of inhibition is -5%.

Which % of control [4] does the source give for CNC(=O)Nc1ccc(-c2nc(N3CC4CCC(C3)O4)c3cnn(C4CCC5(CC4)OCCO5)c3n2)cc1 here?
Its % of control is 92%.

For CC[C@@H]1[C@H](F)C(=O)N[C@@H]1COc1nccc2cc(C(N)=O)c(OC)cc12 [ZIMLOVISERTIB], which % of inhibition ([5]; at 0.01 µM) is on record?
The % of inhibition was 1.5%.

And the % of inhibition ([5]; at 0.04 µM)?
The % of inhibition was -2.5%.

And the % of inhibition ([5]; at 0.2 µM)?
Its % of inhibition is 7.8%.

And the % of inhibition ([5]; at 1 µM)?
Its % of inhibition is 6.7%.

What about the % of inhibition ([5]; at 5 µM) of the same compound?
The % of inhibition was -16.4%.

What about the % of inhibition [6] of the same compound?
The % of inhibition was -4.9%.

What about the % of inhibition [7] of the same compound?
Its % of inhibition is -2.1%.
